Legend:
[1] = Viscosity of 28% methylglucamine salt solutions at 37° C; assay type: physicochemical; settings: 28% iodine methylglucamine salt solution
Experimental: Pharmaceutical grade injectable solutions are prepared in the form of the methylgucamine or sodium salt, containing 28, 38 or 48 g iodine per 100 ml (solutions said to contain 28%, 38% and 48% iodine).
It is apparent, from said results, that, contrary to expectations, the compounds of the formula (I) have relatively low solution viscosities.

[2] = Osmolality determination (FISKE osmometer); assay type: physicochemical; settings: solutions containing 28% iodine; methylglucamine salts; extrapolation from successive dilutions
Experimental: Osmolality is determined by extrapolation of the values obtained on successive dilutions of solutions containing 28% or 38% iodine.
Osmolality readings are made with a FISKE Model 230/D/330 D osmometer. This apparatus indicates this measurement as milliosmoles per kg of solution. Its operation is based on the principles of cryoscopy. The determinations were made with solutions containing 28% iodine.

[3] = test system: mice; assay: Acute toxicity determination, intravenous toxicity in mice; assay type: in vivo, mice (Swiss origin, IOPS mice of OFI strain); settings: 24 hours
Experimental: Intravenous toxicity determination was effected in Swiss origin, IOPS mice of OFI strain.
Each dosage level was injected to a lot of 10 mice comprising 5 male and 5 female mice.
Injections were made manually, in the caudal vein, at a rate of 2 ml/minute.
Death rate during the 24 hours after injection was recorded.

[4] = test system: femoral artery; assay: Effect on the femoral rate of flow (peripheral vasodilatation); assay type: in vivo, mongrels
Experimental: This test was carried out in Nembutal-anesthetized male or female 7-12 mongrels.
Nembutal was used at a dosage of 30 mg/kg, with Vetranquil pre-medication, (overall intravenous injection of 2.5 mg), respiration was spontaneous.
Rate of flow variations were recorded at the level of the right or left fermoral artery, by means of a Statham electromagnetic sensor.
The injections were made in a collateral of the fermoral artery, downstream of the sensor, by means of a catheter mounted by the retrograde route, so as not to perturb the blood flow.
The injections were made under a constant volume of 1.5 ml administered within 3-5 seconds.
The same volume of an iostonic sodium chloride solution was also injected.

[5] = Biliary clearance test in cats; assay type: in vivo; set-up: scale not given here
Experimental: This test was conducted in male or female adult cats weighing 3-4 kg.
The test material was injected intravenously, at a dosage of 0.10 g/kg iodine at the level of the internal saphenous vein. Clearance of the material was monitored by X-ray control.
X-ray pictures visualizing the gall bladder and the bladder were taken at the following times: 30 minutes, 1 hour, 2 hours, 3 hours, 4 hours, 5 hours, 6 hours.

[6] = test system: rats; assay: Toxicological investigation in rats on intracisternal injection (Melartin's method); assay type: in vivo
Text: The results of a toxicological investigation effected in rats on intracisternal injection, according to E. Melartin's method (InvestigativeRadiology 1970 5, 1, 13-21) are also set forth below.

[7] = 1.5 ml into collateral of femoral artery, 28% I, Mgl salt
[8] = i.v., 0.10 g I/kg, 28% I, Mgl salt

| Compound | Viscosity [1] | Osmolality [2] | Acute toxicity in mice, i.v. ([3]; 28% I, Mgl salt) | Peripheral vasodilatation, femoral rate of flow [4, 7] | Biliary clearance in cat, i.v. [5, 8] | also measured |
| --- | --- | --- | --- | --- | --- | --- |
| CNC(=O)c1c(I)c(NC(=O)CN(CC(=O)Nc2c(I)c(C(=O)NCCO)c(I)c(C(=O)NCCO)c2I)CC(=O)Nc2c(I)c(C(=O)NCCO)c(I)c(C(=O)NCCO)c2I)c(I)c(C(=O)O)c1I [Compound 31, 2,4,6-triiodo--3-N-methylcarbamyl-5-bis{[2,4,6-triiodo-3,5-bis(N-hydroxyethylcarbamyl)-phenyl]carbamylmethyl} aminoacetamido-benzoic acid] | 10.2 cps | 350 mosm/kg | 15 grams I/kg | + | 0 | Death rate ([6]; 56 mg I per rat): 1/10 |
| CC(=O)N(C)c1c(I)c(NC(=O)CN(CC(=O)Nc2c(I)c(C(=O)NCCO)c(I)c(C(=O)NCCO)c2I)CC(=O)Nc2c(I)c(C(=O)NCCO)c(I)c(C(=O)NCCO)c2I)c(I)c(C(=O)O)c1I [Compound 32, 2,4,6-triiodo-3-N-methylacetamido-5-bis{[2,4,6-triiodo-3,5-bis(N-hydroxyethylcarbamyl)-phenyl]carbamylmethyl}aminoacetamido-benzoic acid] | – | 270 mosm/kg | 15 grams I/kg | + | 0 | Death rate ([6]; 50 mg I per rat): 0/10 |
| CNC(=O)c1c(I)c(NC(=O)CCCCC(=O)Nc2c(I)c(C(=O)O)c(I)c(C(=O)NC)c2I)c(I)c(C(=O)O)c1I [c, 5,5'-Adipoyldiimido-bis-(2,4,6-triiodo-N-methylisophthalamic)acid, reference compound] | – | 950 mosm/kg | 6.2 grams I/kg | ++ | 0 | Death rate ([6]; 17 mg I per rat): 9/10 |
| CNC(=O)c1c(I)c(NC(=O)CNC(=O)c2c(I)c(C(=O)NC)c(I)c(N(C)C(C)=O)c2I)c(I)c(C(=O)O)c1I [Compound 9, 2,4,6-triiodo-3-N-methylcarbamyl-5-(2,4,6-triiodo-3-N-methylcarbamyl-5-N-methylacetamido-benzoyl)-glycylamino-benzoic acid] | 5.8 cps | 440 mosm/kg | – | – | – | Acute toxicity in mice, i.v. ([3]; 38% I, Mgl salt): 11.5 grams I/kg; Peripheral vasodilatation, femoral rate of flow ([4]; 1.5 ml into collateral of femoral artery, 38% I, Mgl salt): +; Biliary clearance in cat, i.v. ([5]; i.v., 0.10 g I/kg, 38% I, Mgl salt): ++ |
| CNC(=O)c1c(I)c(C(=O)O)c(I)c(N(C)C(=O)CN(CC(=O)Nc2c(I)c(C(=O)NCCO)c(I)c(C(=O)NCCO)c2I)CC(=O)Nc2c(I)c(C(=O)NCCO)c(I)c(C(=O)NCCO)c2I)c1I [Compound 33, 2,4,6-triiodo-3-N-methylcarbamyl-5-bis{[2,4,6-triiodo-3,5,-bis(N-hydroxyethylcarbamyl)-phenyl]carbamylmethyl}amino-N-methylacetamido-benzoic acid] | – | 370 mosm/kg | – | – | – | Acute toxicity in mice, i.v. ([3]; 38% I, Na salt): 17 grams I/kg; Peripheral vasodilatation, femoral rate of flow ([4]; 1.5 ml into collateral of femoral artery, 38% I, Na salt): ++; Death rate ([6]; 56 mg I per rat): 0/10 |
| CNC(=O)c1c(I)c(NC(=O)CNC(=O)c2c(I)c(C(=O)NCCO)c(I)c(N(C)C(C)=O)c2I)c(I)c(C(=O)O)c1I [Compound 8, 2,4,6-triiodo-3-N-methylcarbamyl-5-(2,4,6-triiodo-3-N-hydroxyethylcarbamyl-5-N-methylacetamido-benzoyl)glycyl amino-benzoic acid] | 5.5 cps | 535 mosm/kg | 12 grams I/kg | ++ | ± | – |
| CNC(=O)c1c(I)c(C(=O)NCCCC(=O)Nc2c(I)c(C(=O)O)c(I)c(C(=O)NCCO)c2I)c(I)c(N(C)C(C)=O)c1I [Compound 24, 2,4,6-triiodo-3-N-hydroxyethylcarbamyl5-(2,4,6-triiodo-3-N-methylcarbamyl-5-N-methylacetamidobenzoyl)-ε-amino-butyrylamino-benzoic acid] | 6 cps | 575 mosm/kg | 8.5 grams I/kg | + | 0 | – |
| CC(=O)Nc1c(I)c(C(=O)NCC(=O)Nc2c(I)c(C(=O)O)c(I)c(C(=O)NCCO)c2I)c(I)c(N(C)C(C)=O)c1I [Compound 6, 2,4,6-triiodo-3-N-hydroxyethylcarbamyl-5-(2,4,6-triiodo-3-acetamido-5-N-methylacetamido-benzoyl)-glycylamino-benzoic acid] | 5.2 cps | 480 mosm/kg | 10 grams I/kg | + | 0 | – |
| CNC(=O)c1c(I)c(NC(C)=O)c(I)c(C(=O)NCC(=O)Nc2c(I)c(C(=O)O)c(I)c(C(=O)NCCO)c2I)c1I [Compound 3, 2,4,6-triiodo-3-N-hydroxyethylcarbamyl-5-(2,4,6-triiodo-3-N-methylcarbamyl-5-acetamidio-benzoyl)-glycylaminobenzoic acid] | 5.72 cps | 550 mosm/kg | 9-10 grams I/kg | + | – | – |
| CNC(=O)c1c(I)c(NC(C)=O)c(I)c(C(=O)NCC(=O)N(C)c2c(I)c(C(=O)O)c(I)c(C(=O)NC)c2I)c1I [Compound 14, 2,4,6-triiodo-3-N-methylcarbamyl-5-(2,4,6-triiodo-3-N-methylcarbamyl-5-acetamido-benzoyl)-glycyl-N-methylamino-benzoic acid] | 5.2 cps | 600 mosm/kg | 12 grams I/kg | + | + | – |
| CNC(=O)c1c(I)c(C(=O)NCC(=O)Nc2c(I)c(C(=O)O)c(I)c(C(=O)NCCO)c2I)c(I)c(N(C)C(C)=O)c1I [Compound 1, 2,4,6-triiodo-3-N-hydroxyethylcarbamyl-5-(2,4,6-triiodo-3-N-methylcarbamyl-5-N-methyl-N-acetylaminobenzoyl)glycylamino-benzoic acid] | 5.4 cps | 510 mosm/kg | – | – | – | Acute toxicity in mice, i.v. ([3]; 38% I, Mgl salt): 11.5 grams I/kg; Peripheral vasodilatation, femoral rate of flow ([4]; in vivo): +; Biliary clearance in cat, i.v. ([5]; in vivo, iv): ± |
| CNC(=O)c1c(I)c(NC(=O)CCCNC(=O)c2c(I)cc(I)c(N(C)C(C)=O)c2I)c(I)c(C(=O)O)c1I [Compound 11, 2,4,6-triiodo-3-N-methylcarbamyl-5-(2,4,6-triiodo-3-N-methylacetamido-benzoyl)-γ-aminobutyrylaminobenzoic acid] | – | 390 mosm/kg | 2.3 grams I/kg | ++++ | +++ | – |
| CNC(=O)c1c(I)c(C(=O)NCC(=O)Nc2c(I)c(NC(C)=O)c(I)c(C(=O)O)c2I)c(I)c(N(C)C(C)=O)c1I [Compound 25, 2,4,6-triiodo-3-acetamido-5-(2,4,6-triiodo-3-N-methylcarbamyl-5-N-methylacetamido-benzoyl)glycylamino-benzoic acid] | – | 925 mosm/kg | – | – | – | Acute toxicity in mice, i.v. ([3]; 34% I, Na salt): 9 grams I/kg; Peripheral vasodilatation, femoral rate of flow ([4]; 1.5 ml into collateral of femoral artery, 34% I, Na salt): ++; Biliary clearance in cat, i.v. ([5]; i.v., 0.10 g I/kg, 34% I, Na salt): 0 |
| CNC(=O)c1c(I)c(NC(=O)CCCNC(=O)c2c(I)c(C(=O)NC)c(I)c(N(C)C(C)=O)c2I)c(I)c(C(=O)O)c1I [Compound 2, 2,4,6-triiodo-3-N-methylcarbamyl-5-(2,4,6-triiodo-3-N-methylcarbamyl-5-N-methylacetamido-benzoyl)-γ-aminobutyrylamino-benzoic acid] | 6.56 cps | 475 mosm/kg | 9.5 grams I/kg | + | 0 | – |
